# Assay results published in patent US12281098B2, “Five-membered-fused six-membered compound, preparation method, pharmaceutical composition and use” (HANGZHOU POLYMED BIOPHARMACEUTICALS, INC., priority 2021, dated 2025).
# Target: T1, IRAK4 kinase (Homo sapiens, UniProt Q9NWZ3)
# T1 construct: purchased Carna 09-145
# T1 sequence (Q9NWZ3 1-460): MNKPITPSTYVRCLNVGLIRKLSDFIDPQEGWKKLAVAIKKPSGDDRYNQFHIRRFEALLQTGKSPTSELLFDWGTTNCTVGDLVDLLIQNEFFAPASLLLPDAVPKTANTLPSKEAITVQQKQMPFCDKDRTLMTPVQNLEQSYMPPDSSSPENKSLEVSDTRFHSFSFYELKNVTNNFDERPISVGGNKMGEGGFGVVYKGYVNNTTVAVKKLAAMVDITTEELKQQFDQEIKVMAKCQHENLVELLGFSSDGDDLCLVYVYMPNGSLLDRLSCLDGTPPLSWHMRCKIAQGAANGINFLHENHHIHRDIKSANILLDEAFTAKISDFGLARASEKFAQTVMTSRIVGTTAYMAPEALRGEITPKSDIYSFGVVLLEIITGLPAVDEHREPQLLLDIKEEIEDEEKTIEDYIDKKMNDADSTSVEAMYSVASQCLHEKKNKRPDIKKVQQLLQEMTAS
# Assay: Compound inhibition of IRAK4 kinase activity (fluorescence microfluidic mobility shift assay)
# Format: biochemical
# Conditions: Table 1; 10 μM ATP, 6 nM IRAK4 kinase
# Method: Based on the experimental method of fluorescence microfluidic mobility shift assay, the IC50 value of the compound for competitive binding of ATP to IRAK4 kinase was determined. The initial detection concentration of the compound was 10 μM, which was 4-fold serially diluted to 0.38 nM and assayed in duplicate. In this case, commercially available staurosporine was the standard control for the assay.
# 1) IRAK4 kinase was dissolved in kinase buffer (50 mM HEPES pH 7.5, 10 mM MgCl2, 2 mM DDT, and 0.01% Brij-35) at a final concentration of 6 nM.
# 2) The substrate peptide FAM-P8 and ATP were dissolved in the above kinase buffer, and the final concentrations of the substrate peptide FAM-P8 and ATP for IRAK4 were 3 μM and 10 μM, respectively.
# 3) Compound dilution: The compound was first diluted to 50 μM, and then 4-fold serially diluted with DMSO. In this case, the solution without compound and kinase served as the blank control, corresponding to the “minimum value” shown below; the solution without compound but containing kinase, adenosine 5′-triphosphate disodium salt hydrate, DMSO, and the buffer served as the positive control, corresponding to the “maximum value” shown below.
# 4) Kinase reaction and termination: 10 μL of the kinase buffer was added to a 384-well plate containing 5 μL of the compound to be tested, and the mixture was incubated at room temperature for 10 minutes; another 10 μL of buffer containing the substrate peptide and adenosine 5′-triphosphate disodium salt hydrate was added to the 384-well plate, and after incubation at 28° C. for 1 hour, 25 μL of termination solution (100 mM HEPES pH 7.5, 50 mM EDTA, 0.2% Coating Reagent #3, and 0.015% Brij-35) was added to each well to terminate the reaction.
# 5) Data reading: CaliperEZ Reader II instrument was used to read the conversion rate data. Setting conditions: downstream voltage as −500 V, upstream voltage as −2250 V, base pressure as −0.5 PSI, and screening pressure as −1.2 PSI.
# 6) Data calculation: the conversion rate data was copied from CaliperEZ Reader II, and the conversion rate was converted into inhibition rate data. The calculation formula is as follows: Inhibition percentage (%)=(maximum value−conversion rate)/(maximum value−minimum value)*100%
# IC50 values were fitted with XLFit excel add-in version 5.4.0.8.
row,IC50,Compound
1,≥ 10000 nM,O=C(CCCN1Cc2cc(NC(=O)c3cccc(C(F)(F)F)n3)c(Br)cc2C1=O)NCCOCCOCCNc1cccc2c1C(=O)N(C1CCC(=O)NC1=O)C2=O (stereo not drawn) [III-1]
2,1000 to 10000 nM,O=C1CCC(N2C(=O)c3cccc(NCCOCCOCCOCCN4Cc5cc(NC(=O)c6cccc(C(F)(F)F)n6)c(Br)cc5C4=O)c3C2=O)C(=O)N1 (stereo not drawn) [III-4]
3,100 to 1000 nM,CC(C)(O)c1cc2nn(CCN3CCN(CC(=O)N4CC5(CCN(c6cccc7c6C(=O)N(C6CCC(=O)NC6=O)C7=O)CC5)C4)C3=O)cc2cc1NC(=O)c1cccc(C(F)(F)F)n1 (stereo not drawn) [III-12]
4,100 to 1000 nM,CC(C)(O)c1cc2nn(CCN3CCN(CC(=O)NC4CCN(c5cccc6c5C(=O)N(C5CCC(=O)NC5=O)C6=O)CC4)C3=O)cc2cc1NC(=O)c1cccc(C(F)(F)F)n1 (stereo not drawn) [III-13]
5,100 to 1000 nM,CC(C)(O)c1cc2nn(CCN3CCN(CC(=O)N4CCN(c5cccc6c5C(=O)N(C5CCC(=O)NC5=O)C6=O)CC4)C3=O)cc2cc1NC(=O)c1cccc(C(F)(F)F)n1 (stereo not drawn) [III-14]
6,100 to 1000 nM,Cc1ncsc1-c1ccc([C@H](C)NC(=O)C2C[C@@H](O)CN2C(=O)[C@@H](NC(=O)COCCNC(=O)CN2CCN(CCn3cc4cc(NC(=O)c5cccc(C(F)(F)F)n5)c(C(C)(C)O)cc4n3)C2=O)C(C)(C)C)cc1 (stereo partly drawn) [III-15]

# Same assay, conditions: Table 2; 10 μM ATP, 6 nM IRAK4 kinase
row,Compound,IC50
1,O=C(CCCN1Cc2cc(NC(=O)c3cccc(C(F)(F)F)n3)c(Br)cc2C1=O)NCCOCCOCCNc1cccc2c1C(=O)N(C1CCC(=O)NC1=O)C2=O (stereo not drawn) [III-1],≥ 10000 nM
2,O=C1CCC(N2C(=O)c3cccc(NCCOCCOCCOCCN4Cc5cc(NC(=O)c6cccc(C(F)(F)F)n6)c(Br)cc5C4=O)c3C2=O)C(=O)N1 (stereo not drawn) [III-4],1000 to 10000 nM
3,CC(C)(O)c1cc2nn(CCN3CCN(CC(=O)N4CC5(CCN(c6cccc7c6C(=O)N(C6CCC(=O)NC6=O)C7=O)CC5)C4)C3=O)cc2cc1NC(=O)c1cccc(C(F)(F)F)n1 (stereo not drawn) [III-12],100 to 1000 nM
4,CC(C)(O)c1cc2nn(CCN3CCN(CC(=O)NC4CCN(c5cccc6c5C(=O)N(C5CCC(=O)NC5=O)C6=O)CC4)C3=O)cc2cc1NC(=O)c1cccc(C(F)(F)F)n1 (stereo not drawn) [III-13],100 to 1000 nM
5,CC(C)(O)c1cc2nn(CCN3CCN(CC(=O)N4CCN(c5cccc6c5C(=O)N(C5CCC(=O)NC5=O)C6=O)CC4)C3=O)cc2cc1NC(=O)c1cccc(C(F)(F)F)n1 (stereo not drawn) [III-14],100 to 1000 nM
6,Cc1ncsc1-c1ccc([C@H](C)NC(=O)C2C[C@@H](O)CN2C(=O)[C@@H](NC(=O)COCCNC(=O)CN2CCN(CCn3cc4cc(NC(=O)c5cccc(C(F)(F)F)n5)c(C(C)(C)O)cc4n3)C2=O)C(C)(C)C)cc1 (stereo partly drawn) [III-15],100 to 1000 nM
7,COc1cc2c(cc1NC(=O)c1cccc(C(F)(F)F)n1)CN(CCC(C)(C)C(=O)N1CCC3(CC1)CCN(c1ncc(C(=O)N[C@H](C(=O)N4C[C@H](O)C[C@H]4C(=O)N[C@@H](C)c4ccc(-c5scnc5C)cc4)C(C)(C)C)cn1)CC3)C2=O [III-32],100 to 1000 nM
8,COc1cc2c(cc1NC(=O)c1cccc(C(F)(F)F)n1)CN(CCC(C)(C)C(=O)N1CCC3(CC1)CCN(c1ncc(Nc4cccc5c4C(=O)N(C4CCC(=O)NC4=O)C5=O)cn1)CC3)C2=O (stereo not drawn) [III-33],100 to 1000 nM
9,COc1cc2c(cc1NC(=O)c1cccc(C(F)(F)F)n1)CN(CCN1CCN(CC(=O)N3CCC4(CCC(C(=O)NC(C(=O)N5CC(O)CC5C(=O)NC(C)c5ccc(-c6scnc6C)cc5)C(C)(C)C)CC4)CC3)CC1)C2=O (stereo not drawn) [III-43],100 to 1000 nM
10,COc1cc2c(cc1NC(=O)c1cccc(C(F)(F)F)n1)CN(CCN1CCN(CC(=O)N3CCC4(CCC(NC(C(=O)N5CC(O)CC5C(=O)NC(C)c5ccc(-c6scnc6C)cc5)C(C)(C)C)CC4)CC3)CC1)C2=O (stereo not drawn) [III-44],100 to 1000 nM
11,COc1cc2c(cc1NC(=O)c1cccc(C(F)(F)F)n1)CN(CCN1CCN(CC(=O)N3CCC4(CC3)CCN(c3cccc5c3C(=O)N(C3CCC(=O)NC3=O)C5=O)CC4)CC1)C2=O (stereo not drawn) [III-58],100 to 1000 nM
12,COc1cc2c(cc1NC(=O)c1cccc(C(F)(F)F)n1)CN(CCC(C)(C)C(=O)N1CCC3(CC1)CN(c1cccc4c1C(=O)N(C1CCC(=O)NC1=O)C4=O)C3)C2=O (stereo not drawn) [III-59],100 to 1000 nM
13,COc1cc2c(cc1NC(=O)c1cccc(C(F)(F)F)n1)CN(CCC(C)(C)C(=O)N1CC3(C1)CN(c1cccc4c1C(=O)N(C1CCC(=O)NC1=O)C4=O)C3)C2=O (stereo not drawn) [III-64],100 to 1000 nM
14,COc1cc2nn(CCN3CCC(CC(=O)N4CCC5(CC4)CCN(c4cccc6c4C(=O)N(C4CCC(=O)NC4=O)C6=O)CC5)CC3)cc2cc1NC(=O)c1cccc(C(F)(F)F)n1 (stereo not drawn) [III-71],< 100 nM
15,COc1cc2nn(CCN3CCC(CC(=O)N4CC5(C4)CN(c4cccc6c4C(=O)N(C4CCC(=O)NC4=O)C6=O)C5)CC3)cc2cc1NC(=O)c1cccc(C(F)(F)F)n1 (stereo not drawn) [III-72],< 100 nM
16,O=C1CCC(N2C(=O)c3cccc(N4CCC5(CCN(C(=O)CN6CCN(CCn7cc8cc(NC(=O)c9cccc(C(F)(F)F)n9)c(OC(F)(F)F)cc8n7)CC6)CC5)CC4)c3C2=O)C(=O)N1 (stereo not drawn) [III-73],100 to 1000 nM

# Now from value to compound:
row,IC50,Compound
1,< 100 nM,COc1cc2nn(CCN3CCN(CC(=O)N4CCC5(CC4)CCN(c4cccc6c4C(=O)N(C4CCC(=O)NC4=O)C6=O)CC5)CC3)cc2cc1NC(=O)c1cccc(C(F)(F)F)n1 (stereo not drawn) [III-38]
2,< 100 nM,COc1cc2nn(CCN3CCN(C4CCC5(CC4)CCN(c4cccc6c4C(=O)N(C4CCC(=O)NC4=O)C6=O)CC5)CC3)cc2cc1NC(=O)c1cccc(C(F)(F)F)n1 (stereo not drawn) [III-40]
3,< 100 nM,COc1cc2nn(CCN3CCN(CC(=O)N4CCC5(CC4)CCN(c4cccc6c4C(=O)N(C4CCC(=O)NC4=O)C6=O)CC5)[C@H](C)C3)cc2cc1NC(=O)c1cccc(C(F)(F)F)n1 (stereo partly drawn) [III-45]
4,< 100 nM,COc1cc2nn(CCN3CCN(CC(=O)N4CCC5(CC4)CCN(c4cccc6c4C(=O)N(C4CCC(=O)NC4=O)C6=O)CC5)[C@@H](C)C3)cc2cc1NC(=O)c1cccc(C(F)(F)F)n1 (stereo partly drawn) [III-46]
5,< 100 nM,COc1cc2nn(CCN3CCN(CC(=O)N4CCC5(CCC(C(=O)N[C@H](C(=O)N6C[C@H](O)C[C@H]6C(=O)N[C@@H](C)c6ccc(-c7scnc7C)cc6)C(C)(C)C)CC5)CC4)[C@H](C)C3)cc2cc1NC(=O)c1cccc(C(F)(F)F)n1 [III-48]
6,< 100 nM,CC(C)(O)c1cc2nn(CCN3CCN(CC(=O)N4CCC5(CC4)CCN(c4cccc6c4C(=O)N(C4CCC(=O)NC4=O)C6=O)CC5)CC3)cc2cc1NC(=O)c1cccc(C(F)(F)F)n1 (stereo not drawn) [III-50]
7,< 100 nM,CC(C)Oc1cc2nn(CCN3CCN(CC(=O)N4CCC5(CC4)CCN(c4cccc6c4C(=O)N(C4CCC(=O)NC4=O)C6=O)CC5)CC3)cc2cc1NC(=O)c1cccc(C(F)(F)F)n1 (stereo not drawn) [III-51]
8,< 100 nM,COc1cc2nn(CCN3C4CCC3CN(CC(=O)N3CCC5(CC3)CCN(c3cccc6c3C(=O)N(C3CCC(=O)NC3=O)C6=O)CC5)C4)cc2cc1NC(=O)c1cccc(C(F)(F)F)n1 (stereo not drawn) [III-53]
9,< 100 nM,COc1cc2nn(CCN3CCN(CC(=O)N4CCC5(CC4)CCN(c4cc6c(cc4F)C(=O)N(C4CCC(=O)NC4=O)C6=O)CC5)CC3)cc2cc1NC(=O)c1cccc(C(F)(F)F)n1 (stereo not drawn) [III-55]
10,< 100 nM,Cc1ncsc1-c1ccc([C@H](C)NC(=O)[C@@H]2C[C@@H](O)CN2C(=O)[C@@H](NC(=O)C2CCC3(CC2)CCN(C(=O)CN2CCN(CCn4cc5cc(NC(=O)c6cccc(C(F)(F)F)n6)c(OC(C)C)cc5n4)CC2)CC3)C(C)(C)C)cc1 [III-57]
11,< 100 nM,CC(C)Oc1cc2nn(CCN3CCN(CC(=O)N4CC5(C4)CN(c4cccc6c4C(=O)N(C4CCC(=O)NC4=O)C6=O)C5)CC3)cc2cc1NC(=O)c1cccc(C(F)(F)F)n1 (stereo not drawn) [III-60]
12,< 100 nM,COc1cc2nn(CCN3CCN(CC(=O)N4CC5(C4)CN(c4cccc6c4C(=O)N(C4CCC(=O)NC4=O)C6=O)C5)CC3)cc2cc1NC(=O)c1cccc(C(F)(F)F)n1 (stereo not drawn) [III-61]
13,< 100 nM,COc1cc2nn(CCN3CCN(CC(=O)N4CCC5(CC4)CN(c4cccc6c4C(=O)N(C4CCC(=O)NC4=O)C6=O)C5)CC3)cc2cc1NC(=O)c1cccc(C(F)(F)F)n1 (stereo not drawn) [III-62]
14,< 100 nM,COc1cc2nn(CCC3CCN(CC(=O)N4CCC5(CC4)CCN(c4cccc6c4C(=O)N(C4CCC(=O)NC4=O)C6=O)CC5)CC3)cc2cc1NC(=O)c1cccc(C(F)(F)F)n1 (stereo not drawn) [III-66]
15,< 100 nM,COc1cc2nn(CC#CC3CCN(CC(=O)N4CCC5(CC4)CCN(c4cccc6c4C(=O)N(C4CCC(=O)NC4=O)C6=O)CC5)CC3)cc2cc1NC(=O)c1cccc(C(F)(F)F)n1 (stereo not drawn) [III-67]
16,< 100 nM,COc1cc2nn(CCC3CCN(CC(=O)N4CCC5(CCC(C(=O)N[C@H](C(=O)N6C[C@H](O)C[C@H]6C(=O)N[C@@H](C)c6ccc(-c7scnc7C)cc6)C(C)(C)C)CC5)CC4)CC3)cc2cc1NC(=O)c1cccc(C(F)(F)F)n1 [III-68]
17,< 100 nM,COc1cc2nn(CCC3CCN(CC(=O)N4CC5(CC(CC(=O)N[C@H](C(=O)N6C[C@H](O)C[C@H]6C(=O)N[C@@H](C)c6ccc(-c7scnc7C)cc6)C(C)(C)C)C5)C4)CC3)cc2cc1NC(=O)c1cccc(C(F)(F)F)n1 [III-70]
